Data taken from US20030176445A1, “Substituted 1,4-dihydropyridine compounds as bradykinin antagonists” (Pfizer Inc., priority 1999, published 2003).
Where a name gives a salt, the structure may show the parent alone.

Compound	melting point
CCCCC1(O)C2CCC1CC(N1CCN(C(=O)CC3=C(C(=O)OC)C(c4c(Cl)cccc4Cl)C(C(=O)OC)=C(CCc4nccs4)N3)CC1)C2 (stereo not drawn) (as salt: hydrochloride) [Example 6, Dimethyl 4-(2,6-dichlorophenyl)-2-[2-[4-(8-butyl-8-hydroxybicyclo[3.2.1]oct-3-yl)-1-piperazinyl]-2-oxoethyl]-6-[2-(1,3-thiazol-2-yl)ethyl]-1,4-dihydro-3,5-pyridinedicarboxylate]	174 to 177 °C (dec.)
COC(=O)C1=C(CCc2nccs2)NC(CC(=O)N2CCN(C3CC4CC(=O)CC4C3)CC2)=C(C(=O)OC)C1c1c(Cl)cccc1Cl (stereo not drawn) (as salt: hydrochloride) [Example 10, Dimethyl 4-(2,6-dichlorophenyl)-2-[2-oxo-2-[4-(5-oxooctahydro-2-pentalenyl)-1-piperazinyl]ethyl]-6-(2-(1,3-thiazol-2-yl)ethyl)-1,4-dihydro-3,5-pyridinedicarboxylate]	214 to 220 °C (dec.)
COC(=O)C1=C(CCc2nccs2)NC(CC(=O)N2CCN(C3CC4CCC(C3)C4(O)C(C)C)CC2)=C(C(=O)OC)C1c1c(Cl)cccc1Cl (stereo not drawn) (as salt: hydrochloride) [Example 7, Dimethyl 4-(2,6-dichlorophenyl)-2-[2-[4-(8-hydroxy-8-isopropylbicyclo[3.2.1]oct-3-yl)-1-piperazinyl]-2-oxoethyl]-6-[2-(1,3-thiazol-2-yl)ethyl]-1,4-dihydro-3,5-pyridinedicarboxylate]	178 to 180 °C (dec.)
